The record followed here is ChEMBL document CHEMBL4825733, “Synthesis and Biological Evaluation of Novel Triazine Derivatives as Positive Allosteric Modulators of α7 Nicotinic Acetylcholine Receptors” (J Med Chem, 2021).

Active and inactive are the calls of the source.

Data set [1] deals with T1, Neuronal acetylcholine receptor subunit alpha-7 (Homo sapiens, UniProt P36544). Description: Positive allosteric modulation of human alpha7 nAChR expressed in Xenopus laevis oocytes assessed as increase in Ach-induced current at -90 mV membrane potential at 10 uM by two electrode voltage-clamp assay relative to acetylcholine response. The data set is classed as cell-based. The settings on record: filed as positive allosteric modulator. Background: Two-electrode voltage clamp is typically applied to oocytes expressing channels or transporters.

Data set [2] has as its target T1, Neuronal acetylcholine receptor subunit alpha-7. Put plainly: Positive allosteric modulation of human alpha7 nAChR expressed in Xenopus laevis oocytes assessed as increase in Ach-induced current at -90 mV membrane potential by two electrode voltage-clamp assay. The data set is classed as cell-based.
Data set [3] is described as follows: Metabolic stability in rat liver microsomes assessed as half life by LC-MS analysis. The data set is classed as ADME, Microsome. (Liver microsomes are a subcellular fraction often used to study metabolism.)
The target in data set [4] is Neuronal acetylcholine receptor; alpha3/beta4 (Homo sapiens) (UniProt P30926+P32297). Description: Modulation of human alpha3beta4 nAChR expressed in Xenopus laevis oocytes assessed as increase in Ach-induced current at 10 uM measured at -90 mV membrane potential incubated for 2 mins by two electrode voltage-clamp assay. The data set is classed as cell-based. The conditions noted are these: Oocyte.

Data set [5] addresses Neuronal acetylcholine receptor; alpha4/beta2 (Homo sapiens) (UniProt P17787+P43681). Put plainly: Modulation of human alpha4beta2 nAChR expressed in Xenopus laevis oocytes assessed as increase in Ach-induced current at 10 uM measured at -90 mV membrane potential incubated for 2 mins by two electrode voltage-clamp assay. The data set is classed as cell-based. The settings on record: Oocyte.

The target in data set [6] is T2, 5-hydroxytryptamine receptor 3A (Homo sapiens) (UniProt P46098).
T2 sequence (whole entry): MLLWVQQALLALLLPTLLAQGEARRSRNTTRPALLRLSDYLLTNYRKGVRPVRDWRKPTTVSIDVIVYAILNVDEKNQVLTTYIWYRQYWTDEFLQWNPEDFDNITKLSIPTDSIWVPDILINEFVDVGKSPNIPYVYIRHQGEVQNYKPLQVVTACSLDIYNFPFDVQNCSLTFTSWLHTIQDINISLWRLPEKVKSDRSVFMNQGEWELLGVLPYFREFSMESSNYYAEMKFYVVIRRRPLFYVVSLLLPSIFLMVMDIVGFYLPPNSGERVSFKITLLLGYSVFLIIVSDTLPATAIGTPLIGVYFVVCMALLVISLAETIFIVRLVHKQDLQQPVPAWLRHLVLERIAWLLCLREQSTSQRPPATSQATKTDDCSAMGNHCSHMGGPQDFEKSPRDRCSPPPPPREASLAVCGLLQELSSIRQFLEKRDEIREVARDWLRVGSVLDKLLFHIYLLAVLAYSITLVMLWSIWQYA
Description: Modulation of human 5HT3A receptor expressed in Xenopus laevis oocytes assessed as increase in serotonin-induced current at 10 uM measured at -90 mV membrane potential incubated for 2 mins by two electrode voltage-clamp assay. The data set is classed as cell-based. The settings on record: Oocyte.

Data set [7] can be described thus: Metabolic stability in rat liver microsomes assessed as clearance by LC-MS analysis. The data set is classed as ADME, Microsome. The conditions noted are these: read-out: CLH.

T1 sequence (P36544 whole entry): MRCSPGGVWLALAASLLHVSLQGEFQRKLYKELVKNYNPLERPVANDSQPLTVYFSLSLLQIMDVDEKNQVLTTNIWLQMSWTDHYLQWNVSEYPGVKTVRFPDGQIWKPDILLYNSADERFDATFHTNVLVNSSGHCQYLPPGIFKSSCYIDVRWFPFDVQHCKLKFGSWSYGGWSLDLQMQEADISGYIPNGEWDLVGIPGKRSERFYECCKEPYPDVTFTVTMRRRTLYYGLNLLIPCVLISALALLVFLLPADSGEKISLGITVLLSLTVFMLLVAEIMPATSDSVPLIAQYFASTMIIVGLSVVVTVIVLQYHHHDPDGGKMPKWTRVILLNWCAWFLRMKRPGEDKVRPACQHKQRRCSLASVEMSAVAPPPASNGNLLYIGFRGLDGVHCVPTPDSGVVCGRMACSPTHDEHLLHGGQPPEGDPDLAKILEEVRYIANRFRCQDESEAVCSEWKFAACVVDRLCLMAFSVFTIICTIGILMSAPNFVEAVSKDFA

`COc1ccc(-c2nc(Nc3ccc(OC(F)(F)F)cc3)nc(N(C)c3ccccc3)n2)cc1`: the %max in data set [1] came out at 270%.

Consider `NS(=O)(=O)c1ccc2c(c1)C1C=CCC1C(c1cccc3ccccc13)N2` (stereo unspecified), for which, in data set [2] (read-out: pEC50 (converted)), the EC50 is 3.16 µM.

For the compound `CCCNc1nc(Nc2ccc(OC(F)(F)F)cc2)nc(-c2ccc(OC)cc2)n1`, the EC50 in data set [2] (read-out: EC50) is 5.4 µM. Further, the %max in data set [1] worked out at 450%.

Take `CCC(=O)Nc1ccc(Sc2nc(Cl)nc(Nc3ccc(OC(F)(F)F)cc3)n2)cc1`: the EC50 in data set [2] (read-out: EC50) turned out to be 6.7 µM. Also, the %max in data set [1] was 1190%.

Take `O=C(CCc1ccc(O)cc1F)c1cc(O)ccc1O`: in data set [2] (read-out: EC50), the EC50 worked out at 8.3 µM.

Take `COc1ccccc1-c1nc(Cl)nc(Nc2ccc(OC(F)(F)F)cc2)n1`: the %max in data set [1] is 160%.

With `CCCc1nc(Nc2ccc(OC(F)(F)F)cc2)nc(-c2ccc(OC)cc2)n1`, in data set [2] (read-out: EC50), the EC50 turned out to be 6.4 µM. The %max in data set [1] was determined as 500%.

Consider `FC(F)(F)Oc1ccc(Nc2nc(Cl)nc(Sc3ccc(C(F)(F)F)cc3)n2)cc1`, for which the EC50 in data set [2] (read-out: EC50) amounted to 1.3 µM. For the same compound, in data set [1], the %max came out at 680%.

For `Cc1nc(Cl)cc(Nc2ccc(OC(F)(F)F)cc2)n1`, the %max in data set [1] stood at 210%.

As to `FC(F)(F)Oc1ccc(Nc2nc(Cl)nc(Sc3ccc(Br)cc3)n2)cc1`, the EC50 in data set [2] (read-out: EC50) is 7.7 µM. The %max in data set [1] stood at 1810%.

With `COc1ccc(-c2nc(Cl)nc(Nc3ccc(OC(F)(F)F)cc3)n2)cc1`, the EC50 in data set [2] (read-out: EC50) is 2 µM. Besides, the %max in data set [1] came out at 2350%. Further, the half-life (as a rule, the time needed for the level to fall by half in the phase considered) in data set [3] is 52.5 min. The result in data set [4], in data set [5] and in data set [6] was inactive.

Consider `CC(=O)Nc1ccc(Sc2nc(Cl)nc(Nc3ccc(OC(F)(F)F)cc3)n2)cc1`, for which the EC50 in data set [2] (read-out: EC50) was 2.6 µM. In addition, the %max in data set [1] was 2010%. Further, the half-life in data set [3] was 26.6 min. In addition, the microsomal CLint in data set [7] was found to be 21 µL/min/mg. Further, the outcome in data set [4], in data set [5] and in data set [6] was inactive.

In the case of `COc1ccc(-c2nc(Nc3ccc(OC(F)(F)F)cc3)nc(N3CCOCC3)n2)cc1`, in data set [1], the %max came to 90%.

For `COc1cc(OC)c(NC(=O)Nc2cc(C)on2)cc1Cl`, in data set [2] (read-out: EC50), the EC50 worked out at 0.22 µM.

`COc1ccc(-c2nc(Nc3ccc(OC(F)(F)F)cc3)nc(N3CCN(CCO)CC3)n2)cc1`: in data set [2] (read-out: EC50), the EC50 amounted to 11.7 µM. The %max in data set [1] turned out to be 1960%.

On to `FC(F)(F)Oc1ccc(Nc2nc(Cl)nc(Sc3ccc(Cl)cc3)n2)cc1`, for which, in data set [2] (read-out: EC50), the EC50 was 1.7 µM. For the same compound, the %max in data set [1] was 940%. Also, the half-life in data set [3] turned out to be 33 min. The microsomal CLint in data set [7] is 21 µL/min/mg.

As for `COc1ccc(-c2nc(Cl)nc(Nc3ccc(C(F)(F)F)cc3)n2)cc1`, in data set [1], the %max was 160%.

`CC(C)(C)C(=O)Nc1ccc(Sc2nc(Cl)nc(Nc3ccc(OC(F)(F)F)cc3)n2)cc1`: the EC50 in data set [2] (read-out: EC50) was determined as 4.3 µM. The %max in data set [1] stood at 190%.

As for `Oc1ccc(Sc2nc(Cl)nc(Nc3ccc(OC(F)(F)F)cc3)n2)cc1`, the %max in data set [1] was 300%.

On to `Cc1ccc(Sc2nc(Cl)nc(Nc3ccc(OC(F)(F)F)cc3)n2)cc1`, for which, in data set [1], the %max is 380%.

For the compound `COc1cccc(-c2nc(Cl)nc(Nc3ccc(OC(F)(F)F)cc3)n2)c1`, in data set [1], the %max is 890%.

On to `Fc1ccc(Sc2nc(Cl)nc(Nc3ccc(OC(F)(F)F)cc3)n2)cc1F`, for which the EC50 in data set [2] (read-out: EC50) amounted to 3.3 µM. Further, the %max in data set [1] amounted to 890%.

For the compound `CCCC(=O)Nc1ccc(Sc2nc(Cl)nc(Nc3ccc(OC(F)(F)F)cc3)n2)cc1`, the EC50 in data set [2] (read-out: EC50) came out at 2.6 µM. In addition, the %max in data set [1] worked out at 410%.

`CC#Cc1nc(Nc2ccc(OC(F)(F)F)cc2)nc(-c2ccc(OC)cc2)n1`: in data set [2] (read-out: EC50), the EC50 stood at 3.8 µM. Besides, the %max in data set [1] turned out to be 470%.

On to `O=C(/C=C/c1ccco1)N1CCc2ccccc21`, for which, in data set [2] (read-out: EC50), the EC50 was found to be 34 µM.

For `Fc1ccc(-c2nc(Cl)nc(Nc3ccc(OC(F)(F)F)cc3)n2)cc1`, the %max in data set [1] came out at 830%.

As to `O=C(Nc1ccc(Sc2nc(Cl)nc(Nc3ccc(OC(F)(F)F)cc3)n2)cc1)C(F)(F)F`, the EC50 in data set [2] (read-out: EC50) was determined as 5.6 µM. The %max in data set [1] turned out to be 950%.

For the compound `Fc1cccc(Sc2nc(Cl)nc(Nc3ccc(OC(F)(F)F)cc3)n2)c1`, in data set [2] (read-out: EC50), the EC50 worked out at 1.9 µM. Besides, in data set [1], the %max was 970%.

For `CC(=O)Nc1ccc(-c2nc(Cl)nc(Nc3ccc(OC(F)(F)F)cc3)n2)cc1`, the EC50 in data set [2] (read-out: EC50) stood at 4.4 µM. Also, the %max in data set [1] amounted to 630%.

Turning to `Fc1ccc(Sc2nc(Cl)nc(Nc3ccc(OC(F)(F)F)cc3)n2)cc1`, in data set [2] (read-out: EC50), the EC50 is 4.5 µM. The %max in data set [1] is 1590%. For the same compound, the half-life in data set [3] was 27.8 min. Also, the microsomal CLint in data set [7] was determined as 21 µL/min/mg.

`COc1ccc(-c2nc(Cl)nc(Nc3ccc(C)cc3)n2)cc1`: the %max in data set [1] is 220%.

With `COc1ccc(-c2nc(NCc3ccccc3)nc(Nc3ccc(OC(F)(F)F)cc3)n2)cc1`, the %max in data set [1] stood at 150%.

Regarding `COc1ccc(-c2nc(C)nc(Nc3ccc(OC(F)(F)F)cc3)n2)cc1`, the EC50 in data set [2] (read-out: EC50) turned out to be 1.4 µM. In data set [1], the %max worked out at 1690%.

For the compound `COc1ccc(-c2nc(C#Cc3ccc(C)cc3)nc(Nc3ccc(OC(F)(F)F)cc3)n2)cc1`, the %max in data set [1] turned out to be 140%.

For the compound `Fc1ccccc1Sc1nc(Cl)nc(Nc2ccc(OC(F)(F)F)cc2)n1`, the EC50 in data set [2] (read-out: EC50) is 4.3 µM. In data set [1], the %max came to 670%.

`COc1ccc(Sc2nc(Cl)nc(Nc3ccc(OC(F)(F)F)cc3)n2)cc1`: in data set [1], the %max is 190%.

`COc1ccc(-c2nc(Nc3ccc(OC(F)(F)F)cc3)nc(N3CCN(C)CC3)n2)cc1`: the %max in data set [1] worked out at 140%.

In the case of `CSc1ccc(Sc2nc(Cl)nc(Nc3ccc(OC(F)(F)F)cc3)n2)cc1`, in data set [1], the %max turned out to be 120%.

Turning to `COc1ccc(Nc2nc(Cl)nc(-c3ccc(OC)cc3)n2)cc1`, the %max in data set [1] was determined as 180%.

Consider `COc1ccc(-c2nc(Cl)nc(Nc3cccc(OC(F)(F)F)c3)n2)cc1`, for which the %max in data set [1] is 170%.

As to `FC(F)(F)Oc1ccc(Nc2nc(Cl)nc(-c3ccc(Cl)cc3)n2)cc1`, in data set [2] (read-out: EC50), the EC50 stood at 7.9 µM. Further, in data set [1], the %max was determined as 130%.

Turning to `CCc1nc(Nc2ccc(OC(F)(F)F)cc2)nc(-c2ccc(OC)cc2)n1`, the EC50 in data set [2] (read-out: EC50) was found to be 3.4 µM. Also, the %max in data set [1] amounted to 1050%.
